pIC50: −log10 of the molar value.
Tests used:
[1] = target: Recombinant full length human OGA enzyme (Homo sapiens (Human), UniProt O60502); assay: OGA Enzyme Inhibition Biochemical Assay; conditions: 1 nM OGA, 100 μM 4-MUGlcNAc, 90 minutes, pH 6.4
Procedure: Recombinant full length human OGA enzyme was purchased from Origene. 4-MUGlcNAc substrate was purchased from Sigma. All other reagents were purchased from Sigma or Fisher. Assay buffer consists of the McIlvaine buffer system, pH 6.4 (0.2M Na2HPO4 mixed with 0.1M citric acid) and 0.01% BSA. […] Reactions were incubated for 90 minutes at room temperature and quenched with 40 μl of 3M glycine, pH 10 and read on a Perkin Elmer Envision plate reader (Ex: 355 nm/Em: 460 nm). Compounds were tested with a 10-point dose-response starting from 20 μM with a 4-fold dilution. Data was fit using GraphPad Prism using a 4-parameter fit with variable slope.

OGA (S400 O-GLCNAC) = OGA (S400 O-GLCNAC) (Homo sapiens (Human), UniProt O60502); assay: Cellular OGA-Tau MSD Assay; assay type: cell-based; conditions: HEK-293T cells transfected with OGT and Tau-V5; Tau-S400-GlcNAc MSD readout
Sequence of OGA (S400 O-GLCNAC) (O60502 whole entry): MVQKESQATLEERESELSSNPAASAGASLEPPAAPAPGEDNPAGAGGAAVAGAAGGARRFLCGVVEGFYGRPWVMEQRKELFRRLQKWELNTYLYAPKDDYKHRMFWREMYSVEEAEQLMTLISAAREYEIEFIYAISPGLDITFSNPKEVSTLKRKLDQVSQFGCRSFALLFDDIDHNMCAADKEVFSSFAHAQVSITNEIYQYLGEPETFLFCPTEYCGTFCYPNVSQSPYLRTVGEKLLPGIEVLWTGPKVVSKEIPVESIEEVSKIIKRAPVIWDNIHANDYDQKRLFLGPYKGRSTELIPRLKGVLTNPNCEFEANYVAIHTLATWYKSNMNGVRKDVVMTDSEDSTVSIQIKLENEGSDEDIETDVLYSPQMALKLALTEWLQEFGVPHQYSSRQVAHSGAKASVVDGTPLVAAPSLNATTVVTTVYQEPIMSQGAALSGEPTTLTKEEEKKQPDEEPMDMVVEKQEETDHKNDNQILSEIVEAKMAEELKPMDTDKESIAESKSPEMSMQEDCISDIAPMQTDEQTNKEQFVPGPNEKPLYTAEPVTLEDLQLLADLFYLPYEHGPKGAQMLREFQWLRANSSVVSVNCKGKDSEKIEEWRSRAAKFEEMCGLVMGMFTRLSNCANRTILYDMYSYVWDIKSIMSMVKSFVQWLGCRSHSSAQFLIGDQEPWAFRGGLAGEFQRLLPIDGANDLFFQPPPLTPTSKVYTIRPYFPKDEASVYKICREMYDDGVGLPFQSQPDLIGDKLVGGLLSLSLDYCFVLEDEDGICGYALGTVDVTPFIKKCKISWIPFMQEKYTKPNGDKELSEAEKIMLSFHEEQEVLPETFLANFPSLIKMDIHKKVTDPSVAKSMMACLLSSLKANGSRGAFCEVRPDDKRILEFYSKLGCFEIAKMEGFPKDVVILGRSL
Procedure: HEK-293T cells were transfected with OGT and Tau-V5 plasmids using Lipofectamine and grown overnight. Next day, the cells were collected and re-plated at 1×10^5 cells per well in 96 well plates. Cells were incubated for 4 hr at 37° C., before compounds were added at 1 uM, with 3-fold dilutions in a 10-point titration. Cell plates were incubated with compounds overnight at 37° C. The next day media was removed from wells by gentle aspiration and 120 ul of 1× Cell Lysis buffer mixed with protease and phosphatase cocktail added to each well. A freeze thaw was performed at −80° C., then mixed before transferring 50 μl to MSD plates coated with V5-tag antibody to capture Tau. MSD Plates were incubated overnight at 4° C., on a plate shaker. The following day, plates were washed and incubated with Tau-S400-GlcNAc antibody for 2 hr and then developed with rabbit Sulfo-tag antibody. Final read out was carried out on an MSD 600 reader. The data was analyzed using Graph Pad or Genedata, the data was normalized and % activity versus log of compound concentration was plotted. The ICso values were obtained from a 4 parameter fit.

P-gp (MDR1) = assay: MDR1-MDCK Efflux Ratio Assay; assay type: in vitro ADME; conditions: dog, MDR1-MDCK cells, pH 7.4, read-out: MDR1-MDCK Efflux Ratio (B-A/A-B)
Procedure: MDR1-MDCK cell monolayers were grown to confluence on microporous polyester membranes in 96-well Corning insert plates. The permeability assay buffer was Hanks' Balanced Salt Solution containing 10 mM HEPES at pH of 7.4. Loperamide (1 μM) was used as a positive control P-gp substrate. Propranolol and Bestatin (1 μM) were used as high and low permeability comparators, respectively.
Test compounds or positive control P-gp substrate/permeability comprators were added to respective apical and basolateral chambers for bidirectional assessment of permeability. Receiver buffer (transport buffer supplemented with 1% bovine serum albumin) was added to respective receiver chambers. MDR1-MDCK cells were incubated with test compounds at 37° C. with 5% CO2 for 2 hr. Samples were collected from the donor chamber at both 0 and 120 minutes, and from the receiver chamber at 120 minutes. Test and control compound concentrations were determined using LC-MS/MS analysis. Each determination was performed in triplicate.

[2] = Rat Liver Microsome Stability Assay; conditions: rat liver microsomes 0.5 mg/mL, compound 1 μM; Qh 55 mL/minute/kg
Procedure: Aliquots (40 uL) at 0, 5, 10, 15, 25 and 40 minutes post NADPH addition (or compound addition for reactions in absence of NADPH) were transferred into individual 96-well plate wells containing 40 ng/ml of 8-cyclopently-1,3-dipropylxanthine (CPDPX, internal standard) in 160 uL acetonitrile:methanol (1:1 v/v).
The LC/MS/MS system consisted of an ultra high throughput RapidFire® 300 system (Agilent Technologies, Santa Clara, CA) coupled to a Triple Quad 5500 mass spectrometer (ABSciex, Foster City, CA). Sample load and wash were performed on a RapidFire® C4 cartridge using 0.1% formic acid in water as mobile phase A and sample elution using 0.1% formic acid in acetonitrile:methanol (1:1 v/v) as mobile phase B.
CLint, app (apparent intrinsic clearance) was calculated using the following equation for microsome stability.
[formula] • where “a” represents 45 grams of liver/kg of body weight for rat. • CLint,app (apparent intrinsic clearance) was calculated using the following equation for hepatocyte stability: • CLhep (hepatic clearance) was calculated using the following equation for microsomes
[formula] • using 55 mL/minute/kg as Qh (hepatic blood flow) for rat.

Sequence of Recombinant full length human OGA enzyme (O60502 whole entry): as above

Row | Compound | pIC50 [1] | pIC50 (OGA (S400 O-GLCNAC)) | efflux ratio at 2 hr (P-gp (MDR1)) | RLM % Qh (%) [2] [%] | efflux ratio at 2 h (P-gp (MDR1))
1 | COc1nccc2c1COC21C[C@H](C)N(Cc2cnc(NC(C)=O)s2)C1 (stereo partly drawn) [Example 78, N-(5-(((5′S)-4-Methoxy-5′-methyl-3H-spiro[furo[3,4-c]pyridine-1,3′-pyrrolidin]-1′-yl)methyl)thiazol-2-yl)acetamide] | 7.19 | 8.05 | 7.9 | 93 | –
2 | CC(=O)Nc1ncc(CN2CCC3(C2)OCc2ccccc23)s1 (stereo not shown) [Example 57, N-(5-((3H-Spiro[isobenzofuran-1,3′-pyrrolidin]-1′-yl)methyl)thiazol-2-yl)acetamide] | 6.77 | 6.09 | 2.4 | 88 | –
3 | CC(=O)Nc1nc(F)c(CN2CCCC3(C2)OCc2ccncc23)s1 (stereo not shown) [Example 73, N-(5-((1H-Spiro[furo[3,4-c]pyridine-3,3′-piperidin]-1′-yl)methyl)-4-fluorothiazol-2-yl)acetamide] | 8.04 | 7.63 | 21.6 | 78 | –
4 | CC(=O)Nc1ncc(CN2CC3(C[C@@H]2C)OCc2ccccc23)s1 (stereo partly drawn) [Example 59, N-(5-(((5′S)-5′-Methyl-3H-spiro[isobenzofuran-1,3′-pyrrolidin]-1′-yl)methyl)thiazol-2-yl)acetamide] | 8.05 | 7.80 | 3.5 | 94 | –
5 | CC(=O)Nc1nc(F)c(CN2C[C@@]3(Cc4cc(N5CCOCC5)ncc4O3)C[C@@H]2C)s1 [Example 36, N-(4-Fluoro-5-(((2R,5′S)-5′-methyl-5-morpholino-3H-spiro[furo[2,3-c]pyridine-2,3′-pyrrolidin]-1′-yl)methyl)thiazol-2-yl)acetamide] | > 9.00 | 8.10 | 9.3 | 51 | –
6 | COc1cc2c(cn1)[C@]1(C[C@H](C)N(Cc3sc(NC(C)=O)nc3F)C1)OC2 (single isomer, unassigned) [Example 75-a] | – | 7.40 | – | 59 | 7.8
7 | CC(=O)Nc1ncc(CN2CCC3(Cc4cnc(Cl)cc4O3)C2)s1 (stereo not shown) [Example 8, N-(5-((6-Chloro-3H-spiro[furo[3,2-c]pyridine-2,3′-pyrrolidin]-1′-yl)methyl)thiazol-2-yl)acetamide] | 7.13 | 6.18 | 9.4 | 47 | –
8 | CC(=O)Nc1ncc(CN2CCC3(Cc4ccccc4O3)C2)s1 (stereo not shown) [Example 3, N-(5-((3H-Spiro[benzofuran-2,3′-pyrrolidin]-1′-yl)methyl)thiazol-2-yl)acetamide] | 6.48 | 6.00 | 1.7 | 81 | –
9 | CC(=O)Nc1nc(F)c(CN2C[C@@]3(Cc4cc(N5C[C@@H](C)O[C@H](C)C5)ncc4O3)C[C@@H]2C)s1 [Example 41, N-(5-(((2R,5′S)-5-((2R,6R)-2,6-Dimethylmorpholino)-5′-methyl-3H-spiro[furo[2,3-c]pyridine-2,3′-pyrrolidin]-1′-yl)methyl)-4-fluorothiazol-2-yl)acetamide] | > 9.00 | 8.10 | 19.5 | 65 | –
10 | CC(=O)Nc1nc(F)c(CN2CC3(C[C@@H]2C)OCc2cccnc23)s1 (stereo partly drawn) [Example 63, N-(4-Fluoro-5-(((5′S)-5′-methyl-5H-spiro[furo[3,4-b]pyridine-7,3′-pyrrolidin]-1′-yl)methyl)thiazol-2-yl)acetamide] | 7.89 | 7.24 | 26 | 78 | –
11 | COc1cc2c(cn1)[C@]1(C[C@H](C)N(Cc3cnc(NC(C)=O)s3)C1)OC2 (single isomer, unassigned) [Example 76-a] | 7.26 | 7.21 | 17.7 | 58 | –
12 | CNc1cc2c(cn1)O[C@]1(C2)C[C@H](C)N(Cc2sc(NC(C)=O)nc2F)C1 [Example 29, N-(4-Fluoro-5-(((2R,5′S)-5′-methyl-5-(methylamino)-3H-spiro[furo[2,3-c]pyridine-2,3′-pyrrolidin]-1′-yl)methyl)thiazol-2-yl)acetamide] | > 9.00 | 8.52 | 17.7 | 55 | –
13 | CC(=O)Nc1ncc(CN2C[C@@]3(Cc4cc(N5C[C@H](C)O[C@@H](C)C5)ncc4O3)C[C@@H]2C)s1 [Example 42, N-(5-(((2R,5′S)-5-((2S,6S)-2,6-Dimethylmorpholino)-5′-methyl-3H-spiro[furo[2,3-c]pyridine-2,3′-pyrrolidin]-1′-yl)methyl)thiazol-2-yl)acetamide] | 8.72 | 7.85 | 25 | 66 | –
14 | CC(=O)Nc1nc(F)c(CN2C[C@@]3(Cc4cc(N5C[C@H](C)O[C@@H](C)C5)ncc4O3)C[C@@H]2C)s1 [Example 43, N-(5-(((2R,5′S)-5-((2S,6S)-2,6-Dimethylmorpholino)-5′-methyl-3H-spiro[furo[2,3-c]pyridine-2,3′-pyrrolidin]-1′-yl)methyl)-4-fluorothiazol-2-yl)acetamide] | > 9.00 | 8.10 | 17.5 | 75 | –
15 | CC(=O)Nc1ncc(CN2CCCC3(CCCO3)C2)s1 (stereo not shown) [Example 52, N-(5-((1-Oxa-7-azaspiro[4.5]decan-7-yl)methyl)thiazol-2-yl)acetamide] | 6.74 | < 6.00 | 2.6 | 74 | –
16 | CC(=O)Nc1nc(F)c(CN2C[C@@]3(Cc4cc(C(F)F)ncc4O3)C[C@@H]2C)s1 [Example 26, N-(5-(((2R,5′S)-5-(Difluoromethyl)-5′-methyl-3H-spiro[furo[2,3-c]pyridine-2,3′-pyrrolidin]-1′-yl)methyl)-4-fluorothiazol-2-yl)acetamide] | 8.52 | 8.30 | 5.6 | 51 | –
17 | CC(=O)Nc1nc(F)c(CN2CCCC3(C2)OCc2c3cc[nH]c2=O)s1 (stereo not shown) [Example 86, N-(4-Fluoro-5-((4-oxo-4,5-dihydro-3H-spiro[furo[3,4-c]pyridine-1,3′-piperidin]-1′-yl)methyl)thiazol-2-yl)acetamide] | 7.84 | 6.86 | 32.6 | 37 | –
18 | CC(=O)Nc1ncc(CN2C[C@@]3(Cc4cc(N5CCC5)ncc4O3)C[C@@H]2C)s1 [Example 35, N-(5-(((2R,5′S)-5-(Azetidin-1-yl)-5′-methyl-3H-spiro[furo[2,3-c]pyridine-2,3′-pyrrolidin]-1′-yl)methyl)thiazol-2-yl)acetamide] | > 9.00 | 8.40 | 39.5 | 50 | –
19 | CC(=O)Nc1ncc(CN2CCCC3(C2)OCc2cnccc23)s1 (stereo not shown) [Example 68, N-(5-((3H-Spiro[furo[3,4-c]pyridine-1,3′-piperidin]-1′-yl)methyl)thiazol-2-yl)acetamide] | 8.22 | 7.74 | 10.7 | 84 | –
20 | COc1cc2c(cn1)[C@@]1(C[C@H](C)N(Cc3sc(NC(C)=O)nc3F)C1)OC2 (single isomer, unassigned) [Example 75-b] | – | 7.62 | – | 89 | 5.4
21 | CC(=O)Nc1nc(F)c(CN2CCC[C@]3(C2)OCc2c3ccnc2Cl)s1 [Example 84-b, (S)—N-(5-((4-chloro-3H-spiro[furo[3,4-c]pyridine-1,3′-piperidin]-1′-yl)methyl)-4-fluorothiazol-2-yl)acetamide] | 6.51 | < 6.00 | – | – | –
22 | CC(=O)Nc1ncc(CN2CCCC3(C2)OCc2c3ccnc2Cl)s1 (stereo not shown) [Example 85, N-(5-((4-Chloro-3H-spiro[furo[3,4-c]pyridine-1,3′-piperidin]-1′-yl)methyl)thiazol-2-yl)acetamide] | 8.35 | 7.77 | – | – | –

From patent publication US12565504B2, “Spirocyclic O-glycoprotein-2-acetamido-2-deoxy-3-d-glucopyranosidase inhibitors” (BIOGEN MA INC., priority 2019, dated 2026)
